“Also recorded” adds a separate entry of the source. Where a name gives a salt, the structure may show the parent alone. Read-outs that look alike come from different tables or passages of the source.
Assays:
bacteria [1] = conditions: literature; cited from earlier work
[2] = cited from earlier work
[3] = system: isolated bacterial enzymes (β-lactamases); conditions: cited from earlier work
Staph. aureus DSM 1104 = assay: agar diffusion test, Staph. aureus DSM 1104; assay type: cell-based, Staphylococcus aureus
Method: The compound IIIe designated as preferred in earlier patent applications (for example in EP 18,305) hydrolyzes in a few minutes and could never be transported efficiently by the blood vessel (pH 7.4, 37° C.) to the site of action undamaged. […] Using Staphylococcus aureus DSM 1104, only an inhibition halo of a few mm was determined in the agar diffusion test after applying 250 μg of IIIe.
(§1) Certain representatives are just as effective against gram-positive as against gram-negative bacteria and resistant bacteria.

[4] = system: Escherichia coli DSM 1103; assay: agar diffusion test, Escherichia coli DSM 1103; assay type: cell-based
Excerpt: as §1

Staph. aureus 012484/77 = assay: agar diffusion test, Staph. aureus 012484/77 (penicillin- and cephalosporin-resistant); assay type: cell-based, Staphylococcus aureus
Excerpt: as §1

[5] = molecular target: cephalosporinase of E. cloacae 908 R (Enterobacter cloacae, UniProt P05364); assay: in vitro inhibition of the cephalosporinase of E. cloacae 908 R; assay type: biochemical; conditions: relative to formiminothienamycin
cephalosporinase of E. cloacae 908 R, sequence (P05364 21-381): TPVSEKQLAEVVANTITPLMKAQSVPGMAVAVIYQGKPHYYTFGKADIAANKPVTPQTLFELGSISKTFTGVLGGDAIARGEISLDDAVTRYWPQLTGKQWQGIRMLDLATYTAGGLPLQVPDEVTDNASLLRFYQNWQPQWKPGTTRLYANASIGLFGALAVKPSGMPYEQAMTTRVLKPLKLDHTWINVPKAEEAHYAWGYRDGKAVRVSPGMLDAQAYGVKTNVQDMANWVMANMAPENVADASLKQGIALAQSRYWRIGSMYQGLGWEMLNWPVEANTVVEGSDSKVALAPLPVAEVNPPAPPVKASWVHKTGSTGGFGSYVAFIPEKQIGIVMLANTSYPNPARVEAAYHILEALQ
Excerpt: A particular advantage of the oxapenem-3-carboxylic acids according to the invention is that in addition to the abovementioned properties of β-lactamase inhibition they are also themselves antibacterially active per se. It is true that substances having similar properties are known, for example formiminothienamycin (Lit.: Recent Advances in the Chemistry of β-Lactam Antibiotics, ed. by G.I. Gregory, The Royal Society, London, page 279 (1981)). However, the compounds according to the invention show a more rapid, more progressive and more irreversible inhibition of the lactamases with many clinically relevant bacteria. Thus, for example, the cephalosporinase of E. cloacae 908 R is inhibited 780 times more effectively in vitro by the 2-tert-butyl-6-hydroxymethyloxapenem-3-carboxylic acid K salt according to the invention than by formiminothienamycin.

[6] = system: Escherichia coli W 3110 R6K (TEM 1); assay: agar diffusion test, Escherichia coli W 3110 R6K (TEM 1) (β-lactamase-forming); assay type: cell-based
[7] = Hydrolysis half life at pH 7.4, 37° C. in aqueous phosphate buffer (UV spectroscopy; measure of the stability); assay type: physicochemical; conditions: for half-life: aqueous phosphate buffer
bacteria [8] = assay: antibacterial activity in vitro; assay type: cell-based
[9] = system: Beta lactamase from Pseudomonas aeruginosa W; assay: Degradation of mezlocillin by beta lactamase from Pseudomonas aeruginosa W and its prevention (agar hole test); assay type: biochemical
Method: (§2) Methods: the degradation of mezlocillin was determined with Streptococcus pyogenes W using the agar hole test, the sensitivity limits of which are below 1 mcg/ml.
(§3) Degradation of mezlocillin by beta lactamase and prevention of this degradation by oxapenem "O"

[10] = system: Staphylococcus aureus 25, 455/1; assay: Decrease in the colony-forming capacity of Staphylococcus aureus 25, 455/1 in liquid nutrient medium; assay type: cell-based; conditions: control 3.5 × 10^8
Method: The colony-forming capacity of the bacteria was determined by plating out the bacteria on OXOID Iso Sensitest Agar. The two methods are international standard methods.
Synergistic effect of the combination. Decrease in the colony-forming capacity of Staphylococcus aureus 25, 455/1 by the action of mezlocillin in liquid nutrient medium.

[11] = molecular target: T1, Beta lactamase from E. coli 4787 TEM 1 (Escherichia coli, UniProt P62593); assay: Degradation of mezlocillin by beta lactamase from E. coli 4787 TEM 1 and its prevention (agar hole test); assay type: biochemical; conditions: without oxapenem
T1 construct: preparation not described in the excerpts
T1 sequence (P62593 24-286 limits assumed): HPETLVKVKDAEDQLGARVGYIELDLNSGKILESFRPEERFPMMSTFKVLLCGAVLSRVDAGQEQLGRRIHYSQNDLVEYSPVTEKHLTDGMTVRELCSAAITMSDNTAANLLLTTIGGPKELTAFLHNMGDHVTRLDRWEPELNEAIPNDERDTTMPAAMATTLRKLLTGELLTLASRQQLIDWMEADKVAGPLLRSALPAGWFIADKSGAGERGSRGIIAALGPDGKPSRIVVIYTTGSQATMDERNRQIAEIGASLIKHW
Method: as §2, §3

intact bacteria = conditions: antibacterial activity or synergism with ampicillin; Morin and Gorman, page 383; cited from earlier work
similar bacteria = conditions: 25 μg applied, J. Amer. Chem. Soc. 100, 8004 (1978); cited from earlier work

With `CCC1=C(C(=O)O)N2C(=O)C[C@H]2O1` [2-ethyl-1-oxapen-2-em-3-carboxylic acid] as the compound, how does the “antibacterial efficacy (in words)” value (bacteria [1]) read?
The value was “virtually ineffective as an antibiotic”.

And the “stability in aqueous medium (in words)” value ([2]; aqueous medium)?
Its value is “far too unstable in aqueous medium for antibacterial testing”.

And the “inhibition of isolated bacterial enzymes (β-lactamases) (in words)” value [3]?
The value was “Only an inhibition of isolated bacterial enzymes (β-lactamases) was detectable”.

What does the source list for `CC(C)(C)C1=C(C(=O)O)N2C(=O)C[C@H]2O1` [2-tert-butyl-1-oxapen-2-em-3-carboxylic acid]?
zone of inhibition at 200 µg/disc (Staph. aureus DSM 1104; Staphylococcus aureus, DSM1104, 200 μg applied, read-out: inhibition halo diameter): 45 mm; zone of inhibition at 200 µg/disc ([4]; DSM1103, 200 μg applied, read-out: inhibition halo diameter): 41 mm; zone of inhibition at 200 µg/disc (Staph. aureus 012484/77; Staphylococcus aureus, 012484/77, 200 μg applied, read-out: inhibition halo diameter): 47 mm

For `CC(C)(C)C1=C(C(=O)O)N2C(=O)C(CO)C2O1` (stereo not shown) [2-tert-butyl-6-hydroxymethyloxapenem-3-carboxylic acid K salt], which “inhibited times more effectively than by formiminothienamycin” value [5] is on record?
The value was 780 times.

What does the source list for `CC(C)(C)C1=C(C(=O)O)N2C(=O)C(CO)C2O1` (stereo not shown) [3-tert-butyl-6-hydroxymethyl-7-oxo-4-oxa-1-azabicyclo[3.2.0]hept-2-ene-2-carboxylic acid]?
zone of inhibition at 10 µg/disc (Staph. aureus DSM 1104; Staphylococcus aureus, DSM1104, 10 μg applied, read-out: inhibition halo diameter): 30 mm; zone of inhibition at 10 µg/disc ([4]; DSM1103, 10 μg applied, read-out: inhibition halo diameter): 30 mm; zone of inhibition at 10 µg/disc (Staph. aureus 012484/77; Staphylococcus aureus, 012484/77, 10 μg applied, read-out: inhibition halo diameter): 32 mm; zone of inhibition at 10 µg ([6]; Escherichia coli, read-out: inhibition halo diameter): 29 mm

With `CC(C)(C)C1=C(C(=O)O)N2C(=O)C(C)(C)C2O1` (stereo not shown) [Compound IIIa, 2-tert-butyl-6.6-dimethyl-1-oxaoen-2-em-3-carboxylic acid] as the compound, how does the half-life [7] read?
Its half-life is 30 h.

For `CC(C)C1=C(C(=O)O)N2C(=O)C(C)(C)C2O1` (stereo not shown) [Compound IIIb], which half-life [7] is on record?
The half-life was 2 h.

With `CCC1=C(C(=O)O)N2C(=O)C(C)(C)C2O1` (stereo not shown) [Compound IIIc] as the compound, how does the half-life [7] read?
The half-life was 1.17 h.

For `CC1=C(C(=O)O)N2C(=O)C(C)(C)C2O1` (stereo not shown) [Compound IIId], which half-life [7] is on record?
Its half-life is 0.833 h.

With `CC1=C(C(=O)O)N2C(=O)CC2O1` (stereo not shown) [IIIe] as the compound, how does the “inhibition halo (in words)” value (Staph. aureus DSM 1104; 250 μg applied) read?
The value was “a few mm”.

And the “Hydrolysis half life (in words)” value [7]?
Its value is “a few minutes”.

And the “antibacterial efficacy (in words)” value (bacteria [8])?
Its value is “virtually ineffective antibacterially”.

For `CC1(C)S[C@@H]2[C@H](NC(=O)COc3ccccc3)C(=O)N2[C@H]1C(=O)O` [Penicillin V], which zone of inhibition at 130 µg/disc (Staph. aureus DSM 1104; Staphylococcus aureus, DSM1104, read-out: inhibition halo diameter) is on record?
The zone of inhibition at 130 µg/disc was 42 mm.

And the zone of inhibition at 130 µg/disc ([4]; DSM1103, read-out: inhibition halo diameter)?
The zone of inhibition at 130 µg/disc was 13 mm.

What about the “inhibition (in words)” value (Staph. aureus 012484/77; 130 μg applied) of the same compound?
Its value is “not inhibited”.

What about the “inhibition (in words)” value ([6]; 130 μg applied) of the same compound?
Its value is “not inhibited”.

Which Mezlocillin remaining ([9]; reaction time 0 min, with 1 mcg of inhibitor) does the source give for `O=C(O)[C@H]1/C(=C/CO)O[C@@H]2CC(=O)N21` [clavulanic acid] here?
The Mezlocillin remaining was 100 µg/mL.

What about the Mezlocillin remaining ([9]; reaction time 0 min, with 10 mcg of inhibitor) of the same compound?
Its Mezlocillin remaining is 100 µg/mL.

And the Mezlocillin remaining ([9]; reaction time 30 min, with 1 mcg of inhibitor)?
The Mezlocillin remaining was 40 µg/mL.

What about the Mezlocillin remaining ([9]; reaction time 30 min, with 10 mcg of inhibitor) of the same compound?
The Mezlocillin remaining was 27 µg/mL.

What about the Mezlocillin remaining ([9]; reaction time 60 min, with 1 mcg of inhibitor) of the same compound?
The Mezlocillin remaining was 0 µg/mL.

And the Mezlocillin remaining ([9]; reaction time 60 min, with 10 mcg of inhibitor)?
The Mezlocillin remaining was 0 µg/mL.

And the “Number of colonies after an action time of 6 hrs” value ([10]; 0.1 mcg alone)?
The value was 1.0 × 10^8 N/ml.

Which results are given for `CC1(C)S[C@@H]2[C@H](NC(=O)[C@H](NC(=O)N3CCN(S(C)(=O)=O)C3=O)c3ccccc3)C(=O)N2[C@H]1C(=O)O` [mezlocillin]?
Mezlocillin remaining ([9]; reaction time 0 min, without oxapenem): 100 µg/mL; Mezlocillin remaining ([9]; reaction time 30 min, without oxapenem): 35 µg/mL; Mezlocillin remaining ([9]; reaction time 60 min, without oxapenem): 0 µg/mL; Number of colonies after an action time of 6 hrs ([10]; 2.0 mcg alone): 1.0 × 10^6 N/ml; Mezlocillin remaining ([11]; reaction time 0 min): 100 µg/mL; Mezlocillin remaining ([11]; reaction time 30 min): 65 µg/mL; Mezlocillin remaining ([11]; reaction time 60 min): 43 µg/mL; Mezlocillin remaining ([11]; reaction time 240 min): 0 µg/mL

With `CCC1=C(C(=O)O)N2C(=O)CC2O1` (stereo not shown) [potassium salt of 2-ethyl-1-oxapenem-3-carboxylic acid] as the compound, how does the “testability against intact bacteria (in words)” value (intact bacteria) read?
The value was “too unstable for testing the antibacterial activity or the synergism with ampicillin against intact bacteria; also recorded: too unstable for testing synergism with ampicillin against intact bacteria”.

For `C[C@@H](O)[C@H]1C(=O)N2C(C(=O)O)=C(SCCN)C[C@H]12` [thienamycin], which “stability (in words)” value ([2]; literature) is on record?
The value was “very sensitive to hydrolysis”.

And the inhibition halo diameter (similar bacteria)?
Its inhibition halo diameter is 28-41 mm.
